Reference: patent publication US9783532B2, “Molecules having certain pesticidal utilities, and intermediates, compositions, and processes related thereto” (Dow AgroSciences LLC, priority 2013, dated 2017)

What was measured:
Assay type in all cases: in vivo
[1] = system: Beet Armyworm (Spodoptera exigua) ("BAW"); experiment: Bioassay on beet armyworm (BAW), 128-well diet tray assay; details: 168 h, 50 μg/cm^2 on artificial diet, second instar BAW larvae, 25° C., five to seven days, average of eight wells, read-out: BAW % Control (or Mortality) rating
Summary of the method: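 Percent mortality, averaged across eight wells, was read after five to seven days at 25° C. under 14:10 light-dark. Each well held one to five second-instar larvae on artificial diet that had been treated with 50 μg/cm^2 compound in 90:10 acetone-water and dried.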

[2] = system: Cabbage Looper (Trichoplusia ni) ("CL"); experiment: Bioassay on cabbage looper (CL), 128-well diet tray assay; details: 168 h, 50 μg/cm^2 on artificial diet, second instar CL larvae, 25° C., five to seven days, average of eight wells, read-out: CL % Control (or Mortality) rating
Summary of the method: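 Percent mortality, averaged across eight replicate wells, was read after five to seven days at 25 °C under a 14:10 photoperiod. Each well held one to five second-instar T. ni on diet carrying a dried 50 μg/cm^2 dose applied in acetone-water 90:10.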

[3] = system: Green Peach Aphid ("GPA") (Myzus persicae); experiment: Bioassay on green peach aphid (GPA), foliar spray on cabbage seedlings; details: Myzus persicae, foliar, 72 h; 200 ppm spray on infested cabbage seedlings, three days, Abbott corrected % control; read-out: GPA % Control (or Mortality) rating
Experimental: Certain molecules disclosed in this document were tested against GPA using procedures described in the following example. In the reporting of the results, the “GPA Rating Table” was used (See Table Section).
Cabbage seedlings grown in 3-inch pots, with 2-3 small (3-5 cm) true leaves, were used as test substrate. The seedlings were infested with 20-50 GPA (wingless adult and nymph stages) one day prior to chemical application. Four pots with individual seedlings were used for each treatment. Test compounds (2 mg) were dissolved in 2 mL of acetone/methanol (1:1) solvent, forming stock solutions of 1000 ppm test compound. The stock solutions were diluted 5× with 0.025% Tween 20 in water to obtain the solution at 200 ppm test compound. A hand-held aspirator-type sprayer was used for spraying a solution to both sides of […] leaves until runoff. Reference plants (solvent check) were sprayed with the diluent only containing 20% by volume of acetone/methanol (1:1) solvent. Treated plants were held in a holding room for three days at approximately 25° C. and ambient relative humidity (RH) prior to grading. Evaluation was conducted by counting the number of live aphids per plant under a microscope. Percent Control was measured by using Abbott's correction formula (W. S. Abbott, “A Method of Computing the Effectiveness of an Insecticide” J. Econ. Entomol. 18 (1925), pp. 265-267) as follows. Corrected % Control=100*(X−Y)/X • where • X=No. of live aphids on solvent check plants and • Y=No. of live aphids on treated plants

[4] = system: Yellow Fever Mosquito "YFM" (Aedes aegypti); details: about 1 day-old larvae, 96-well plate, room temperature, 3 days, mortality
Summary of the method: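 About 1 day-old Aedes aegypti larvae in liver-powder water added to wells holding compound diluted from 4000 ppm DMSO stock with 90:10 water:acetone, 6 replicate plates. Plates kept covered at room temperature for 3 days. Wells scored for mortality and reported as rating categories.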

SMILES: CC(C)c1ccccc1N1C(=O)CS/C1=N\C(=O)NCCc1ccc(-c2ncn(-c3ccc(OC(F)(F)F)cc3)n2)cc1 [F1, (Z)-1-(3-(2-isopropylphenyl)-4-oxothiazolidin-2-ylidene)-3-(4-(1-(4-(trifluoromethoxy)phenyl)-1H-1,2,4-triazol-3-yl)phenethyl)urea]
- mortality at 50 µg/cm2 [1]: 50 to 100%
- mortality at 50 µg/cm2 [2]: 50 to 100%
- mortality at 200 ppm [3]: 0%

SMILES: Cc1ccc(C(C)C)c(NC(=S)NC(=O)NCCc2ccc(-c3ncn(-c4ccc(OC(F)(F)F)cc4)n3)cc2)c1 [F3, N-[5-methyl-2-isopropylphenyl]-N′-[2-(4-{1-[4-(trifluoromethoxy)-phenyl]-1H-1,2,4-triazol-3-yl}phenyl)ethyl]dicarbonimidothioic diamide]
- mortality at 50 µg/cm2 [1]: 50 to 100%
- mortality at 50 µg/cm2 [2]: 50 to 100%
- mortality at 200 ppm [3]: 0 to 80%

SMILES: Cc1ccc(C(C)C)c(N2C(=O)CS/C2=N\C(=O)NC(C)Cc2ccc(-c3ncn(-c4ccc(OC(F)(F)F)cc4)n3)cc2)c1 (stereo not drawn) [F8, (Z)-1-(3-(2-isopropropyl-5-methylphenyl)-4-oxothiazolidin-2-ylidene)-3-(1-(4-(1-(4-(trifluoromethoxy)phenyl)-1H-1,2,4-triazol-3-yl)phenyl)propan-2-yl)urea]
- mortality at 50 µg/cm2 [1]: 50 to 100%
- mortality at 50 µg/cm2 [2]: 50 to 100%
- mortality at 200 ppm [3]: 0%

SMILES: CC(C)c1ccccc1NC(=S)NC(=O)N/C=C/c1ccc(-c2ncn(-c3ccc(OC(F)(F)F)cc3)n2)cc1 [F11]
- mortality at 50 µg/cm2 [1]: 50 to 100%
- mortality at 50 µg/cm2 [2]: 50 to 100%
- mortality at 200 ppm [3]: 0%

SMILES: CC(C)c1ccccc1N1C(=O)CS/C1=N\C(=O)N/C=C/c1ccc(-c2ncn(-c3ccc(OC(F)(F)F)cc3)n2)cc1 [F12]
- mortality at 50 µg/cm2 [1]: 50 to 100%
- mortality at 50 µg/cm2 [2]: 50 to 100%
- mortality at 200 ppm [3]: 0%

SMILES: C/C(=C\NC(=O)/N=C1\SCC(=O)N1c1ccccc1C(C)C)c1ccc(-c2ncn(-c3ccc(OC(F)(F)F)cc3)n2)cc1 [F13, (Z)-1-(3-(2-isopropylphenyl)-4-oxothiazolidin-2-ylidene)-3-((E)-2-(4-(1-(4-(trifluoromethoxy)phenyl)-1H-1,2,4-triazol-3-yl)phenyl)prop-1-en-1-yl)urea]
- mortality at 50 µg/cm2 [1]: 50 to 100%
- mortality at 50 µg/cm2 [2]: 50 to 100%
- mortality at 200 ppm [3]: 0%

SMILES: CC(C)c1ccccc1NC(=S)NC(=O)NC1CC1c1ccc(-c2ncn(-c3ccc(OC(F)(F)F)cc3)n2)cc1 (stereo not drawn) [F22]
- mortality at 50 µg/cm2 [1]: 50 to 100%
- mortality at 50 µg/cm2 [2]: 50 to 100%
- mortality at 200 ppm [3]: 0%

SMILES: CCCc1ccccc1NC(=S)NC(=O)NC1CC1c1ccc(-c2ncn(-c3ccc(OC(F)(F)F)cc3)n2)cc1 (stereo not drawn) [F23]
- mortality at 50 µg/cm2 [1]: 50 to 100%
- mortality at 50 µg/cm2 [2]: 50 to 100%
- mortality at 200 ppm [3]: 0%

SMILES: CCc1cccc(C)c1NC(=S)NC(=O)NC1CC1c1ccc(-c2ncn(-c3ccc(OC(F)(F)F)cc3)n2)cc1 (stereo not drawn) [F24, N-(2-ethyl-6-methylphenyl)-N′-[2-(4-(1-[4-(trifluoromethoxy)phenyl]-1H-1,2,4-triazol-3-yl)phenyl)cyclopropyl]dicarbonimidothioic diamide]
- mortality at 50 µg/cm2 [1]: 50 to 100%
- mortality at 50 µg/cm2 [2]: 50 to 100%
- mortality at 200 ppm [3]: 0%

SMILES: Cc1cccc(C)c1NC(=S)NC(=O)NC1CC1c1ccc(-c2ncn(-c3ccc(OC(F)(F)F)cc3)n2)cc1 (stereo not drawn) [F25]
- mortality at 50 µg/cm2 [1]: 50 to 100%
- mortality at 50 µg/cm2 [2]: 50 to 100%
- mortality at 200 ppm [3]: 0%

SMILES: CCc1ccc(C)cc1NC(=S)NC(=O)NC1CC1c1ccc(-c2ncn(-c3ccc(OC(F)(F)F)cc3)n2)cc1 (stereo not drawn) [F27, N-(2-ethyl-5-methylphenyl)-N′-[2-(4-{1-[4-(trifluoromethoxy)phenyl]-1H-1,2,4-triazol-3-yl}phenyl)cyclopropyl]dicarbonimidothioic diamide]
- mortality at 50 µg/cm2 [1]: 50 to 100%
- mortality at 50 µg/cm2 [2]: 50 to 100%
- mortality at 200 ppm [3]: 0%

SMILES: Cc1ccc(C(C)C)c(NC(=S)NC(=O)NC2CC2c2ccc(-c3ncn(-c4ccc(OC(F)(F)F)cc4)n3)cc2)c1 (stereo not drawn) [F28, N-[5-methyl-2-(propan-2-yl)phenyl]-N-[2-(4-{1-[4-(trifluoromethoxy)phenyl]-1H-1,2,4-triazol-3-yl}phenyl)cyclopropyl]dicarbonimidothioic diamide]
- mortality at 50 µg/cm2 [1]: 50 to 100%
- mortality at 50 µg/cm2 [2]: 50 to 100%
- mortality at 200 ppm [3]: 0%

SMILES: CCCc1ccccc1N1C(=O)CS/C1=N\C(=O)NC1CC1c1ccc(-c2ncn(-c3ccc(OC(F)(F)F)cc3)n2)cc1 (stereo not drawn) [F30, (Z)-1-(4-oxo-3-(2-propylphenyl)thiazolidin-2-ylidene)-3-(2-(4-(1-(4-(trifluoromethoxy)phenyl)-1H-1,2,4-triazol-3-yl)phenyl)cyclopropyl)urea]
- mortality at 50 µg/cm2 [1]: 50 to 100%
- mortality at 50 µg/cm2 [2]: 50 to 100%
- mortality at 200 ppm [3]: 0%

SMILES: CCc1cccc(C)c1N1C(=O)CS/C1=N\C(=O)NC1CC1c1ccc(-c2ncn(-c3ccc(OC(F)(F)F)cc3)n2)cc1 (stereo not drawn) [F31, (Z)-1-(3-(2-ethyl-6-methylphenyl)-4-oxothiazolidin-2-ylidene)-3-(2-(4-(1-(4-(trifluoromethoxy)phenyl)-1H-1,2,4-triazol-3-yl)phenyl)cyclopropyl)urea]
- mortality at 50 µg/cm2 [1]: 50 to 100%
- mortality at 50 µg/cm2 [2]: 50 to 100%
- mortality at 200 ppm [3]: 0%

SMILES: Cc1cccc(C)c1N1C(=O)CS/C1=N\C(=O)NC1CC1c1ccc(-c2ncn(-c3ccc(OC(F)(F)F)cc3)n2)cc1 (stereo not drawn) [F32, (Z)-1-(3-(2,6-dimethylphenyl)-4-oxothiazolidin-2-ylidene)-3-(2-(4-(1-(4-(trifluoromethoxy)phenyl)-1H-1,2,4-triazol-3-yl)phenyl)cyclopropyl)urea]
- mortality at 50 µg/cm2 [1]: 50 to 100%
- mortality at 50 µg/cm2 [2]: 50 to 100%
- mortality at 200 ppm [3]: 0%

SMILES: COc1ccc(C(C)C)c(N2C(=O)CS/C2=N\C(=O)NCCCCc2ccc(-c3ncn(-c4ccc(OC(F)(F)F)cc4)n3)cc2)c1 [P156, P682, (Z)-1-(3-(2-isopropyl-5-methoxyphenyl)-4-oxothiazolidin-2-ylidene)-3-(4-(4-(1-(4-(trifluoromethoxy)phenyl)-1H-1,2,4-triazol-3-yl)phenyl)butyl)urea]
- mortality at 50 µg/cm2 [1]: 50 to 100%
- mortality at 50 µg/cm2 [2]: 50 to 100%
- YFM % Control (or Mortality) rating [4]: A (80-100)

SMILES: Cc1ccc(C(C)C)c(N2C(=O)CS/C2=N\C(=O)NCCC#Cc2ccc(-c3ncn(-c4ccc(OC(F)(F)F)cc4)n3)cc2)c1 [P160, (Z)-1-(3-(2-isopropyl-5-methylphenyl)-4-oxothiazolidin-2-ylidene)-3-(4-(4-(1-(4-(trifluoromethoxy)phenyl)-1H-1,2,4-triazol-3-yl)phenyl)but-3-yn-1-yl)urea]
- mortality at 50 µg/cm2 [1]: 50 to 100%
- mortality at 50 µg/cm2 [2]: 50 to 100%
- YFM % Control (or Mortality) rating [4]: B (More than 0-Less than 80)

SMILES: CC(C)c1ccccc1N1C(=O)CS/C1=N\C(=O)NCC(C)c1ccc(-c2ncn(-c3ccc(OC(F)(F)F)cc3)n2)cc1 (stereo not drawn) [P205, (Z)-1-(3-(2-isopropylphenyl)-4-oxothiazolidin-2-ylidene)-3-(2-(4-(1-(4-(trifluoromethoxy)phenyl)-1H-1,2,4-triazol-3-yl)phenyl)propyl)urea]
- mortality at 50 µg/cm2 [1]: 50 to 100%
- mortality at 50 µg/cm2 [2]: 50 to 100%
- YFM % Control (or Mortality) rating [4]: A (80-100)

SMILES: COc1ccc(C(C)C)c(N2C(=O)CS/C2=N\C(=O)NCC(C)c2ccc(-c3ncn(-c4ccc(OC(F)(F)F)cc4)n3)cc2)c1 (stereo not drawn) [P679, (Z)-1-(3-(2-isopropyl-5-methoxyphenyl)-4-oxothiazolidin-2-ylidene)-3-(2-(4-(1-(4-(trifluoromethoxy)phenyl)-1H-1,2,4-triazol-3-yl)phenyl)propyl)urea]
- mortality at 50 µg/cm2 [1]: 50 to 100%
- mortality at 50 µg/cm2 [2]: 50 to 100%
- YFM % Control (or Mortality) rating [4]: A (80-100)
